Test results as given in US10130633B2, “Compounds” (BAYER PHARMA AKTIENGESELLSCHAFT, priority 2013, dated 2018).
Where a name gives a salt, the structure may show the parent alone. Read-outs that look alike come from different tables or passages of the source.

Legend:
[1] = tested on: HEK293 FOP control reporter cell line; experiment: HEK293 FOP control reporter assay; format: cell-based, human; conditions: read-out: HEK FOP IC50
Experimental: Measurement of luciferase expression was done as described for the constitutive active Wnt assay.
(§1) In a parallel approach, HEK293 cells were cotransfected with the FOP control vector and pcDNA3. The FOP vector is identical to the TOP construct, but it contains instead of functional TCF elements a randomized, non-functional sequence. For this transfection a stable transfected cell line was generated as well, based on selection with Geneticin (1 mg/ml).

[2] = tested on: constitutive active colorectal cancer cell (CRC) Wnt pathway; experiment: HCT116 TOPFlash cellular reporter assay (Super TopFlash luciferase), constitutive active Wnt pathway; format: cell-based; conditions: Homo sapiens, HCT-116, 36 h, HCT116 TOP reporter cells, 36 hours incubation, luciferase expression
Experimental: In order to discover and characterize small molecules which inhibit the constitutive active colorectal cancer cell (CRC) Wnt pathway, a cellular reporter assay was employed. […] Stable transfectants were generated by cotransfection with pcDNA3 and selection of stable transfected cells with 1 mg/ml G418.

[3] = tested on: HCT116 FOP control reporter cell line; experiment: HCT116 FOPFlash control reporter assay (FOP control vector, non-functional TCF elements); format: cell-based; conditions: Homo sapiens, HCT-116, 36 h, HCT116 FOP control reporter cells, 36 hours incubation, luciferase expression
Source text: as §1, with “HCT116” for “HEK293”, “well.” for “well, based on selection with Geneticin (1 mg/ml).”

| SMILES | IC50 ([1]; HEK293 FOP control cells, EC50 concentration of recombinant Wnt-3a, 16 hours) | IC50 ([1]; Homo sapiens, HEK293, 16 h) | IC50 [2] | IC50 [3] |
| --- | --- | --- | --- | --- |
| C[C@@H](C(=O)Nc1cc(C(=O)Nc2ccc(-c3ccccc3F)nc2)ccc1OC(F)(F)F)N1CCOCC1 (single isomer, unassigned) [Example 9, N-[6-(2-fluorophenyl)pyridin-3-yl]-3-{[(2S)-2-(morpholin-4-yl)propanoyl]amino}-4-(trifluoromethoxy)benzamide or N-[6-(2-fluorophenyl)pyridin-3-yl]-3-{[(2R)-2-(morpholin-4-yl)propanoyl]amino}-4-(trifluoromethoxy)benzamide] | 8.2 µM | – | – | – |
| O=C(CN1CCOCC1)Nc1cc(C(=O)Nc2ncc(-c3ccccc3)s2)ccc1OC(F)(F)F [Example 14, 3-[(morpholin-4-ylacetyl)amino]-N-(5-phenyl-1,3-thiazol-2-yl)-4-(trifluoromethoxy)benzamide] | – | ≥ 50 µM | – | – |
| COc1ccc(NC(=O)c2ncc(-c3ccccc3)o2)cc1NC(=O)CN1CCOCC1 [Example 20, N-{4-methoxy-3-[(morpholin-4-ylacetyl)amino]phenyl}-5-phenyl-1,3-oxazole-2-carboxamide] | – | ≥ 50 µM | – | – |
| O=C(CN1CCOCC1)Nc1cc(NC(=O)c2ccc(-c3cccc(F)c3F)nc2)ccc1OC(F)(F)F [Example 26, 6-(2,3-difluorophenyl)-N-{3-[(morpholin-4-ylacetyl)amino]-4-(trifluoromethoxy)phenyl}nicotinamide] | – | ≥ 50 µM | – | – |
| O=C(CN1CCOCC1)Nc1cc(NC(=O)c2ccc(-c3cc(F)cc(F)c3)nc2)ccc1OC(F)(F)F [Example 27, 6-(3,5-difluorophenyl)-N-{3-[(morpholin-4-ylacetyl)amino]-4-(trifluoromethoxy)phenyl}nicotinamide] | – | ≥ 50 µM | – | – |
| COc1ccc(-c2ccc(C(=O)Nc3ccc(OC)c(NC(=O)CN4CCOCC4)c3)s2)cc1 [Example 35, N-{4-methoxy-3-[(morpholin-4-ylacetyl)amino]phenyl}-5-(4-methoxyphenyl)thiophene-2-carboxamide] | – | ≥ 50 µM | – | – |
| O=C(Nc1nnc(-c2ccccc2)s1)c1ccc(OC(F)F)c(NC(=O)C2(N3CCOCC3)CC2)c1 [Example 37, 4-(difluoromethoxy)-3-({[1-(morpholin-4-yl)cyclopropyl]carbonyl}amino)-N-(5-phenyl-1,3,4-thiadiazol-2-yl)benzamide] | – | ≥ 50 µM | – | – |
| O=C(Nc1nnc(-c2ccccc2)s1)c1ccc(OC(F)F)c(NC(=O)C2(N3CCN(C4CC4)CC3)CC2)c1 [Example 38, 3-({[1-(4-cyclopropylpiperazin-1-yl)cyclopropyl]carbonyl}amino)-4-(difluoromethoxy)-N-(5-phenyl-1,3,4-thiadiazol-2-yl)benzamide] | – | ≥ 50 µM | – | – |
| O=C(CN1CCN(C2CC2)CC1)Nc1cc(C(=O)Nc2nnc(-c3ccccc3)s2)ccc1OC(F)F [Example 41, 3-{[(4-cyclopropylpiperazin-1-yl)acetyl]amino}-4-(difluoromethoxy)-N-(5-phenyl-1,3,4-thiadiazol-2-yl)benzamide] | – | ≥ 50 µM | – | – |
| COCc1ccc(C(=O)Nc2nnc(-c3ccccc3)s2)cc1NC(=O)C1(N2CCN(C3CC3)CC2)CC1 [Example 44, 3-({[1-(4-cyclopropylpiperazin-1-yl)cyclopropyl]carbonyl}amino)-4-(methoxymethyl)-N-(5-phenyl-1,3,4-thiadiazol-2-yl)benzamide] | – | ≥ 50 µM | – | – |
| CN1CCN(C2(C(=O)Nc3cc(C(=O)Nc4nnc(-c5ccccc5)s4)ccc3CS(C)(=O)=O)CC2)CC1 [Example 49, 3-({[1-(4-methylpiperazin-1-yl)cyclopropyl]carbonyl}amino)-4-[(methylsulfonyl)methyl]-N-(5-phenyl-1,3,4-thiadiazol-2-yl)benzamide] | – | ≥ 50 µM | – | – |
| O=C(Nc1nnc(-c2ccccc2)s1)c1ccc(OC(F)(F)F)c(NC(=O)C2(N3CCOCC3)CC2)c1 [Example 50, 3-({[1-(morpholin-4-yl)cyclopropyl]carbonyl}amino)-N-(5-phenyl-1,3,4-thiadiazol-2-yl)-4-(trifluoromethoxy)benzamide] | – | ≥ 50 µM | – | – |
| O=C(Nc1nnc(-c2ccccc2)s1)c1ccc(OC(F)(F)F)c(NC(=O)C2(N3CCN(C4CC4)CC3)CC2)c1 [Example 51, 3-({[1-(4-cyclopropylpiperazin-1-yl)cyclopropyl]carbonyl}amino)-N-(5-phenyl-1,3,4-thiadiazol-2-yl)-4-(trifluoromethoxy)benzamide] | – | ≥ 50 µM | – | – |
| O=C(CN1CCN(C2CC2)CC1)Nc1cc(C(=O)Nc2nnc(-c3ccccc3)s2)ccc1OC(F)(F)F [Example 53, 3-{[(4-cyclopropylpiperazin-1-yl)acetyl]amino}-N-(5-phenyl-1,3,4-thiadiazol-2-yl)-4-(trifluoromethoxy)benzamide] | – | ≥ 50 µM | – | – |
| CC(C(=O)Nc1cc(C(=O)Nc2nnc(-c3ccccc3)s2)ccc1OC(F)(F)F)N1CCN(C)CC1 (centres unmarked) [Example 58, 3-{[2-(4-methylpiperazin-1-yl)propanoyl]amino}-N-(5-phenyl-1,3,4-thiadiazol-2-yl)-4-(trifluoromethoxy)benzamide] | – | ≥ 50 µM | – | – |
| O=C(Nc1nnc(-c2ccccc2)s1)c1ccc(Cl)c(NC(=O)C2(N3CCN(C4CC4)CC3)CC2)c1 [Example 262, 4-chloro-3-({[1-(4-cyclopropylpiperazin-1-yl)cyclopropyl]carbonyl}amino)-N-(5-phenyl-1,3,4-thiadiazol-2-yl)benzamide trifluoroacetate (1:1)] | – | – | 0.195 µM | ≥ 50 µM |
| Nc1ccc(-c2nnc(NC(=O)c3ccc(OC(F)(F)F)c(NC(=O)CN4CCOCC4)c3)s2)cc1 [Example 263, N-[5-(4-aminophenyl)-1,3,4-thiadiazol-2-yl]-3-[(morpholin-4-ylacetyl)amino]-4-(trifluoromethoxy)benzamide] | – | – | 0.25 µM | ≥ 50 µM |
| Cc1ccccc1-c1nnc(NC(=O)c2ccc(OC3CC3)c(NC(=O)CN3CCN(C)CC3)c2)s1 [Example 264, 4-(cyclopropyloxy)-N-[5-(2-methylphenyl)-1,3,4-thiadiazol-2-yl]-3-{[(4-methylpiperazin-1-yl)acetyl]amino}benzamide] | – | – | 0.255 µM | ≥ 50 µM |
| O=C(CN1CCN(C2CC2)CC1)Nc1cc(C(=O)Nc2nnc(-c3ccccc3)s2)ccc1OCC1CC1 [Example 265, 4-(cyclopropylmethoxy)-3-{[(4-cyclopropylpiperazin-1-yl)acetyl]amino}-N-(5-phenyl-1,3,4-thiadiazol-2-yl)benzamide] | – | – | 0.32 µM | ≥ 50 µM |
| Cc1ccccc1-c1nnc(NC(=O)c2ccc(OC3CC3)c(NC(=O)CN3CCOCC3)c2)s1 [Example 266, 4-(cyclopropyloxy)-N-[5-(2-methylphenyl)-1,3,4-thiadiazol-2-yl]-3-[(morpholin-4-ylacetyl)amino]benzamide] | – | – | 0.345 µM | ≥ 50 µM |
| CN1CCN(CC(=O)Nc2cc(C(=O)Nc3nnc(-c4cccc(C#N)c4)s3)ccc2OC(F)(F)F)CC1 [Example 267, N-[5-(3-cyanophenyl)-1,3,4-thiadiazol-2-yl]-3-{[(4-methylpiperazin-1-yl)acetyl]amino}-4-(trifluoromethoxy)benzamide] | – | – | 0.365 µM | ≥ 50 µM |
| O=C(CN1CCOCC1)Nc1cc(C(=O)Nc2nnc(-c3ccccc3)s2)ccc1OCC1CC1 [Example 268, 4-(cyclopropylmethoxy)-3-[(morpholin-4-ylacetyl)amino]-N-(5-phenyl-1,3,4-thiadiazol-2-yl)benzamide] | – | – | 0.365 µM | ≥ 50 µM |
| CCc1ccccc1-c1nnc(NC(=O)c2ccc(OC(F)(F)F)c(NC(=O)CN3CCOCC3)c2)s1 [Example 269, N-[5-(2-ethylphenyl)-1,3,4-thiadiazol-2-yl]-3-[(morpholin-4-ylacetyl)amino]-4-(trifluoromethoxy)benzamide] | – | – | 0.375 µM | ≥ 50 µM |
| CN1CCN(CC(=O)Nc2cc(C(=O)Nc3nnc(-c4ccccc4C(F)(F)F)s3)ccc2OC(F)(F)F)CC1 [Example 270, 3-{[(4-methylpiperazin-1-yl)acetyl]amino}-4-(trifluoromethoxy)-N-{5-[2-(trifluoromethyl)phenyl]-1,3,4-thiadiazol-2-yl}benzamide] | – | – | 0.39 µM | ≥ 50 µM |
| Cc1ccccc1-c1nnc(NC(=O)c2ccc(OC(F)(F)F)c(NC(=O)C3(N4CCN(C)CC4)CC3)c2)s1 [Example 271, N-[5-(2-methylphenyl)-1,3,4-thiadiazol-2-yl]-3-({[1-(4-methylpiperazin-1-yl)cyclopropyl]carbonyl}amino)-4-(trifluoromethoxy)benzamide] | – | – | 0.48 µM | ≥ 50 µM |
| CN1CCN(CC(=O)Nc2cc(C(=O)Nc3nnc(-c4cccc(C(F)(F)F)c4)s3)ccc2OC(F)(F)F)CC1 [Example 272, 3-{[(4-methylpiperazin-1-yl)acetyl]amino}-4-(trifluoromethoxy)-N-{5-[3-(trifluoromethyl)phenyl]-1,3,4-thiadiazol-2-yl}benzamide] | – | – | 0.545 µM | ≥ 50 µM |
| CC[C@H](C(=O)Nc1cc(C(=O)Nc2nnc(-c3ccccc3)s2)ccc1OC(F)(F)F)N1CCN(C)CC1 [Example 274, 3-{[(2R)-2-(4-methylpiperazin-1-yl)butanoyl]amino}-N-(5-phenyl-1,3,4-thiadiazol-2-yl)-4-(trifluoromethoxy)benzamide] | – | – | 3.02 µM | ≥ 50 µM |
| O=C(Nc1ccc([N+](=O)[O-])cc1Cl)c1cc(Cl)ccc1O [Ref., niclosamide, reference compound] | – | – | 1.38 µM | 3.1 µM |
